Results taken from patent US10106558B2, “Azolobenzazine compounds, compositions comprising these compounds and their use for controlling invertebrate pests” (BASF SE, priority 2015, dated 2018).
Read-outs that look alike come from different tables or passages of the source.

Columns and labels:
Format in all cases: in vivo
[1] = system: yellow fever mosquito (Aedes aegypti); assay: whole plant or invertebrate; details: 48 h, larval mortality visually assessed after 2 days, read-out: mortality in comparison with untreated controls
Experimental: Example B1: Action on Yellow Fever Mosquito (Aedes aegypti)
For evaluating control of yellow fever mosquito (Aedes aegypti) the test unit consisted of 96-well-microtiter plates containing 200 μl of tap water per well and 5-15 freshly hatched A. aegypti larvae.
The active compounds were formulated using a solution containing 75% (v/v) water and 25% (v/v) DMSO. Different concentrations of formulated compounds or mixtures were sprayed onto the insect diet at 2.5 μl, using a custom built micro atomizer, at two replications.
After application, microtiter plates were incubated at 28+1° C., 80+5% RH for 2 days. Larval mortality was then visually assessed.

[2] = system: boll weevil (Anthonomus grandis); assay: Action on boll weevil, eggs on insect diet in 96-well microtiter plates; details: 120 h, read-out: mortality in comparison with untreated controls
Experimental: Example B3: Action on Boll Weevil (Anthonomus grandis)
For evaluating control of boll weevil (Anthonomus grandis) the test unit consisted of 96-well-microtiter plates containing an insect diet and 5-10 A. grandis eggs.
(§1) The compounds were formulated using a solution containing 75% v/v water and 25% v/v DMSO. Different concentrations of formulated compounds were sprayed onto the insect diet at 5 μl, using a custom built micro atomizer, at two replications.
After application, microtiter plates were incubated at about 25±1° C. and about 75±5% relative humidity for 5 days. Egg and larval mortality was then visually assessed.

[3] = system: Diamond Back Moth (Plutella xylostella); assay: Action on diamond back moth, dipped cabbage leaves; details: 3rd instar larvae, 72 hours after treatment, read-out: mortality in comparison with untreated controls
Experimental: Example B9: Action on Diamond Back Moth (Plutella xylostella)
The active compound is dissolved at the desired concentration in a mixture of 1:1 (vol:vol) distilled water:acetone. Surfactant (Kinetic® HV) is added at a rate of 0.01% (vol/vol). The test solution is prepared at the day of use.
Leaves of cabbage were dipped in test solution and air-dried. Treated leaves were placed in petri dishes lined with moist filter paper and inoculated with ten 3rd instar larvae. Mortality was recorded 72 hours after treatment. Feeding damages were also recorded using a scale of 0-100%.

[4] = system: Orchid Thrips (Dichromothrips corbetti); assay: Action on orchid thrips, floral-immersion technique; details: adult thrips, 72 hours after treatment, read-out: mortality in comparison with untreated controls
Experimental: Example B2: Action on Orchid Thrips (Dichromothrips Corbetti)
Dichromothrips corbettiadults used for bioassay were obtained from a colony maintained continuously under laboratory conditions. For testing purposes, the test compound is diluted in a 1:1 mixture of acetone:water (vol:vol), plus Kinetic® HV at a rate of 0.01% v/v.
Thrips potency of each compound was evaluated by using a floral-immersion technique. All petals of individual, intact orchid flowers were dipped into treatment solution and allowed to dry in Petri dishes. Treated petals were placed into individual re-sealable plastic along with about 20 adult thrips. All test arenas were held under continuous light and a temperature of about 28° C. for duration of the assay. After 3 days, the numbers of live thrips were counted on each petal. The percent mortality was recorded 72 hours after treatment.

[5] = system: Mediterranean fruitfly (Ceratitis capitata); assay: Action on Mediterranean fruitfly, eggs on insect diet in microtiter plates; details: 120 h, egg and larval mortality visually assessed after 5 days, read-out: mortality in comparison with untreated controls
Experimental: Example B5: Action on Mediterranean Fruitfly (Ceratitis capitata)
For evaluating control of Mediterranean fruitfly (Ceratitis capitata) the test unit consisted of microtiter plates containing an insect diet and 50-80 C. capitata eggs.
as §1
After application, microtiter plates were incubated at about […] and about 80+5% relative humidity for 5 days. Egg and larval mortality was then visually assessed.

[6] = system: tobacco budworm (Heliothis virescens); assay: Action on tobacco budworm, eggs on insect diet in 96-well microtiter plates; details: 120 h, egg and larval mortality visually assessed after 5 days, read-out: mortality in comparison with untreated controls
Experimental: Example B6: Action on Tobacco Budworm (Heliothis virescens)
For evaluating control of tobacco budworm (Heliothis virescens) the test unit consisted of 96-well-microtiter plates containing an insect diet and 15-25 H. virescens eggs.
The compounds were formulated using a solution containing 75% v/v water and 25% v/v DMSO. Different concentrations of formulated compounds were sprayed onto the insect diet at 10 μl, using a custom built micro atomizer, at two replications.
After application, microtiter plates were incubated at about 28±1° C. and about 80±5% relative humidity for 5 days. Egg and larval mortality was then visually assessed.

[7] = system: green peach aphid (Myzus persicae) (mixed life stages); assay: Action on green peach aphid, liquid artificial diet under artificial membrane; details: 72 h, read-out: mortality in comparison with untreated controls
Text: Example B8: Action on Green Peach Aphid (Myzus persicae) (Mixed Life Stages)
For evaluating control of green peach aphid (Myzus persicae) through systemic means the test unit consisted of 96-well-microtiter plates containing liquid artificial diet under an artificial membrane.
The compounds were formulated using a solution containing 75% v/v water and 25% v/v DMSO. Different concentrations of formulated compounds were pipetted into the aphid diet, using a custom built pipetter, at two replications.
After application, 5-8 adult aphids were placed on the artificial membrane inside the microtiter plate wells. The aphids were then allowed to suck on the treated aphid diet and incubated at about 23±1° C. and about 50±5% relative humidity for 3 days. Aphid mortality and fecundity was then visually assessed.

[8] = system: Southern Armyworm (Spodoptera eridania), 2nd instar larvae; assay: Action on southern armyworm 2nd instar larvae, sprayed lima bean plants; details: 96 h, 4 days after treatment, read-out: mortality in comparison with untreated controls
Experimental: Example B10: Action on Southern Armyworm (Spodoptera eridania), 2nd Instar Larvae
The active compounds were formulated by a Tecan liquid handler in 100% cyclohexanone as a 10,000 ppm solution supplied in tubes. The 10,000 ppm solution was serially diluted in 100% cyclohexanone to make interim solutions. These served as stock solutions for which final dilutions were made by the Tecan in 50% acetone:50% water (v/v) into 10 or 20 ml glass vials. A nonionic surfactant (Kinetic®) was included in the solution at a volume of 0.01% (v/v). The vials were then inserted into an automated electrostatic sprayer equipped with an atomizing nozzle for application to plants/insects.
Lima bean plants (variety Sieva) were grown 2 plants to a pot and selected for treatment at the 1st true leaf stage. Test solutions were sprayed onto the foliage by an automated electrostatic plant sprayer equipped with an atomizing spray nozzle. The plants were dried in the sprayer fume hood and then removed from the sprayer. Each pot was placed into perforated plastic bags with a zip closure. About 10 to 11 armyworm larvae were placed into the bag and the bags zipped closed. Test plants were maintained in a growth room at about 25° C. and about 20-40% relative humidity for 4 days, avoiding direct exposure to fluorescent light (24 hour photoperiod) to prevent trapping of heat inside the bags. Mortality and reduced feeding were assessed 4 days after treatment, compared to untreated control plants.

[9] = system: Silverleaf Whitefly (Bemisia argentifolii) (Adults); assay: Action on silverleaf whitefly adults, sprayed cotton plants; details: 72 h, 3 days after treatment, read-out: mortality in comparison with untreated controls
Experimental: Example B4: Action on Silverleaf Whitefly (Bemisia argentifolii) (Adults)
The active compounds were formulated by a Tecan liquid handler in 100% cyclohexanone as a 10,000 ppm solution supplied in tubes. The 10,000 ppm solution was serially diluted in 100% cyclohexanone to make interim solutions. These served as stock solutions for which final dilutions were made by the Tecan in 50% acetone:50% water (v/v) into 5 or 10 ml glass vials. A nonionic surfactant (Kinetic®) was included in the solution at a volume of 0.01% (v/v). The vials were then inserted into an automated electrostatic sprayer equipped with an atomizing nozzle for application to plants/insects.
Cotton plants at the cotyledon stage (one plant per pot) were sprayed by an automated electrostatic plant sprayer equipped with an atomizing spray nozzle. The plants were dried in the sprayer fume hood and then removed from the sprayer. Each pot was placed into a plastic cup and about 10 to 12 whitefly adults (approximately 3-5 days old) were introduced. The insects were collected using an aspirator and a nontoxic Tygon® tubing connected to a barrier pipette tip. The tip, containing the collected insects, was then gently inserted into the soil containing the treated plant, allowing insects to crawl out of the tip to reach the foliage for feeding. Cups were covered with a reusable screened lid. Test plants were maintained in a growth room at about 25° C. and about 20-40% relative humidity for 3 days, avoiding direct exposure to fluorescent light (24 hour photoperiod) to prevent trapping of heat inside the cup. Mortality was assessed 3 days after treatment, compared to untreated control plants.

[10] = system: vetch aphid (Megoura viciae); assay: Action on vetch aphid, broad bean leaf disks in 24-well microtiter plates; details: foliar, 120 h, adult aphids on treated leaf disks, 5 days, read-out: mortality in comparison with untreated controls
Experimental: Example B7: Action on Vetch Aphid (Megoura viciae)
For evaluating control of vetch aphid (Megoura viciae) through contact or systemic means the test unit consisted of 24-well-microtiter plates containing broad bean leaf disks.
The compounds were formulated using a solution containing 75% v/v water and 25% v/v DMSO. Different concentrations of formulated compounds were sprayed onto the leaf disks at 2.5 μl, using a custom built micro atomizer, at two replications.
After application, the leaf disks were air-dried and 5-8 adult aphids placed on the leaf disks inside the microtiter plate wells. The aphids were then allowed to suck on the treated leaf disks and incubated at about 23±1° C. and about 50±5% relative humidity for 5 days. Aphid mortality and fecundity was then visually assessed.

[11] = 800 ppm, egg and larval mortality visually assessed after 5 days
[12] = 800 ppm, adult aphids on treated aphid diet, 3 days

Cc1ccc(C(C)C)c(NC(=S)N/N=C/c2ccc3c(ccc4c3ncn4-c3ccc(OC(F)(F)F)cc3)n2)c1 [Compound C-5, 1-(2-isopropyl-5-methyl-phenyl)-3-[(E)-[3-[4-(trifluoromethoxy)phenyl]imidazo[4,5-f]quinolin-7-yl]methyleneamino]thiourea]
≥ 75%: mortality at 800 ppm [1] | mortality at 800 ppm [2, 11] | mortality at 500 ppm [3] | mortality at 500 ppm [4] | mortality at 800 ppm [5] | mortality at 800 ppm [6] | mortality at 800 ppm [7, 12] | mortality at 500 ppm [8]

CC(C)c1ccccc1N1/C(=N/N=C/c2ccc3c(ccc4c3ncn4-c3ccc(OC(F)(F)F)cc3)n2)SCC1(C)O (centres unmarked) [Compound C-9, (2Z)-3-(2-isopropylphenyl)-4-methyl-2-[(E)-[3-[4-(trifluoromethoxy)phenyl]imidazo[4,5-f]quinolin-7-yl]methylenehydrazono]thiazolidin-4-ol]
≥ 75%: mortality at 500 ppm [9] | mortality at 800 ppm [1] | mortality at 800 ppm [2, 11] | mortality at 500 ppm [3] | mortality at 500 ppm [4] | mortality at 800 ppm [5] | mortality at 800 ppm [6] | mortality at 800 ppm [7, 12] | mortality at 500 ppm [8]

CC(C)c1ccccc1N1C(=O)CS/C1=N\N=C\c1ccc2c(ccc3c2ncn3-c2ccc(C(F)(F)F)nn2)n1 [Compound C-10, (2Z)-3-(2-isopropylphenyl)-2-[(E)-[3-[6-(trifluoromethyl)pyridazin-3-yl]imidazo[4,5-f]quinolin-7-yl]methylenehydrazono]thiazolidin-4-one]
≥ 75%: mortality at 500 ppm [9] | mortality at 800 ppm [2, 11] | mortality at 500 ppm [3] | mortality at 500 ppm [4] | mortality at 800 ppm [10] | mortality at 800 ppm [5] | mortality at 800 ppm [6] | mortality at 500 ppm [8]

CC(OC(=O)Nc1ccc2c(ccc3c2ncn3-c2ccc(OC(F)(F)F)cc2)n1)c1ccc(Cl)cn1 (centres unmarked) [Compound C-11, 1-(5-chloro-2-pyridyl)ethyl N-[3-[4-(trifluoromethoxy)phenyl]imidazo[4,5-f]quinolin-7-yl]carbamate]
≥ 75%: mortality at 800 ppm [1] | mortality at 800 ppm [2] | mortality at 800 ppm [7]

Cc1cccc(C)c1N1CCCS/C1=N/N=C/c1ccc2c(ccc3c2ncn3-c2ccc(OC(F)(F)F)cc2)n1 [Compound C-23, (E)-3-(2,6-dimethylphenyl)-N-[(E)-[3-[4-(trifluoromethoxy)phenyl]imidazo[4,5-f]quinolin-7-yl]methyleneamino]-1,3-thiazinan-2-imine]
≥ 75%: mortality at 500 ppm [9] | mortality at 800 ppm [1] | mortality at 800 ppm [2, 11] | mortality at 500 ppm [3] | mortality at 500 ppm [4] | mortality at 800 ppm [5] | mortality at 800 ppm [6] | mortality at 500 ppm [8]

CC(C)c1ccccc1/N=C1\SCC(=O)N1/N=C/c1cc2ccc3c(ncn3-c3ccc(OC(F)(F)F)cc3)c2cn1 [Compound C-28, (2Z)-2-(2-isopropylphenyl)imino-3-[(E)-[3-[4-(trifluoromethoxy)phenyl]imidazo[4,5-h]isoquinolin-7-yl]methyleneamino]thiazolidin-4-one]
≥ 75%: mortality at 800 ppm [1] | mortality at 800 ppm [2, 11] | mortality at 500 ppm [3] | mortality at 800 ppm [10] | mortality at 800 ppm [5] | mortality at 800 ppm [6] | mortality at 500 ppm [8]

Cc1cccc(C)c1N1CCS/C1=N/N=C/c1ccc2c(ccc3c2ncn3-c2ccc(OC(F)(F)F)cc2)n1 [Compound C-30, (E)-3-(2,6-dimethylphenyl)-N-[(E)-[3-[4-(trifluoromethoxy)phenyl]imidazo[4,5-f]quinolin-7-yl]methyleneamino]thiazolidin-2-imine]
≥ 75%: mortality at 800 ppm [2, 11] | mortality at 500 ppm [3] | mortality at 800 ppm [6] | mortality at 800 ppm [7, 12]
